Experimental data as given in ChEMBL document CHEMBL1155150 (Antimicrob Agents Chemother, 2007).
In brackets after ≈: the same amount, converted by molar mass.

Legend:
[1] = Half life in human plasma at 1 g, iv; format: ADME, organism-based
[2] = test system: Yersinia pestis; assay: Antibacterial activity against Yersinia pestis delta CO92 by broth macrodilution method; format: functional
[3] = test system: Homo sapiens; assay: Free Cmax in human at 1 g, iv; format: ADME, organism-based; conditions: in vivo
[4] = test system: Homo sapiens; assay: Free Cmin in human at 1 g, iv; format: ADME, organism-based; conditions: in vivo
[5] = Half life in human plasma at 500 mg, po; format: ADME, organism-based
[6] = test system: Homo sapiens; assay: Free AUC (0 to 24 hrs) in human plasma at 500 mg, po; format: ADME, organism-based; conditions: in vivo
[7] = test system: Homo sapiens; assay: Free Cmax in human at 500 mg, po; format: ADME, organism-based; conditions: in vivo

## [H]/N=C(/N)N[C@H]1[C@H](O)[C@@H](O)[C@H](O[C@@H]2O[C@@H](C)[C@](O)(C=O)[C@H]2O[C@@H]2O[C@@H](CO)[C@H](O)[C@@H](O)[C@@H]2NC)[C@@H](N/C(N)=N\[H])[C@@H]1O [STREPTOMYCIN]
[1]
  half-life: 2.5 h
[2]
  MBC: 2 mg/L (≈ 3.44 µM)
  MIC: 2 mg/L (≈ 3.44 µM)
[3]
  fCmax: 38 mg/L
[4]
  fCmin: 2 mg/L

## C[C@H]1COc2c(N3CCN(C)CC3)c(F)cc3c(=O)c(C(=O)O)cn1c23.C[C@H]1COc2c(N3CCN(C)CC3)c(F)cc3c(=O)c(C(=O)O)cn1c23.O [LEVOFLOXACIN]
[5]
  half-life: 7 h
[2]
  MBC: 0.125 mg/L
  MIC: 0.06 mg/L
[6]
  fAUC: 36 µg·h/mL
[7]
  fCmax: 3.6 mg/L
